In patent publication US20100048462A1, “TRUNCATED PTH PEPTIDES WITH A CYCLIC CONFORMATION” (Zealand Pharma A/S, priority 2006, published 2010):
Entries after “also recorded” stand apart in the source; their conditions may differ. Bridge positions count the residues as written; N and C are the ends. Square brackets hold non-standard residues; d marks the D form. Peptide text beside a SMILES is read from it. I, II: the chains in the order shown. hArg = N=C(N)NCCCC[C@H](N)C(=O)O; Ac5c = NC1(C(=O)O)CCCC1; Aib = CC(C)(N)C(=O)O

Key:
ovariectomized (OVX) rat = assay: OVX rat model, bone mineral density by DEXA; format: in vivo; design: increase in BMD in the femoral shaft compared to vehicle-treated OVX animals: unit not given here; details: for BMD proximal tibia (18% bone loss in OVX animals): FIG. 6, SEQ ID NO: 19 20-320, SEQ ID NO: 33 5 nmol/kg; for BMD proximal tibia (18% bone loss in OVX animals) / BMD in lumbar vertebrae L1-L2 relative to vehicle-treated OVX and sham animals: s.c. 6 weeks; for BMD in lumbar vertebrae L1-L2 relative to vehicle-treated OVX and sham animals: FIG. 7; for BMD compared to vehicle-treated OVX animals: all doses; for increase in BMD in the femoral shaft compared to vehicle-treated OVX animals / BMD in the femoral shaft: FIG. 9; for BMD in the femoral shaft: site rich in cortical bone
Excerpt: The ovariectomiced(OVX) rat may be used to test the effect of the PTH analogues on osteopenia/osteoporosis in vivo. The OVX rat develop osteopenia due to ovarian hormone deficiency. Osteopenia can be detected as early as 14 days post OVX, increase for the next 100 days and then stabilized (Wronski T J et al., Calcif. Tissue Int., 43(3): 179-183, 1988). The OVX rat model is considered the “golden standard” by both authorities and industry as a model for osteoporosis (Peter C, Rodan G A. Preclinical safety profile of alendronate. Int j Clin Pract Suppl 1999; 101:3-8, and Stewart A F, Cain R L, Burr D B, Jacob D, Turner C H, Hock J M).
One hundred and seventy-eight female Fisher rats were used for the experiment. Initially the animals were housed in Macrolon type 3 cages (2 rats/cage) under controlled conditions (20° C., 55-85% humidity) following a 12:12-hrs light/dark cycle with light on at 6 am. The animals were fed ad libitum with standard Altromin No. 1324 diet (Chr. Petersen, Ringsted, Denmark). The animals had free access to drinking water (domestic quality tap water added citric acid to pH≈3). At the time of inclusion the animals were 6 months old.
The week before OVX the animals were stratified according to body weight into two groups that were subjected to either OVX (140 animals) or sham operation (38 animals). Rats were anaesthetized with Hypnorm-Dormicum and the ovariectomy was performed through a midline laparotomy. Sham-operated animals were subjected to midline laparotomy, and the ovaries were exposed but not removed (sham). This group served as an age matched non-osteoporotic control group. A microchip was implanted into each rat during surgery, in order to allow identification of the animals.
To allow osteopenia to develop before treatment start, animals were housed for 7 weeks (pre-treatment period) without pharmacological treatment. At the end of the pre-treatment period, sham- and OVX-operated rats were stratified according to bodyweight and divided into six groups of 13-20 animals each (Table 7). At this point, one OVX group (N=20) and one sham group (N=20) were sacrificed. These control groups established baseline levels of bone mineral density (BMD). Furthermore, samples were stored for possible later analysis of bone markers, bone strength, histomorphometry and μCT scans.
For the following 6 weeks one sham group and one OVX group were subjected to vehicle administration (40 mM sodium acetate, 45 mM histidine and 3.9% mannitol, pH 5.5, 300 mOsm/kg). Five OVX groups were treated with increasing doses of the cyclic PTH(1-17) analogue SEQ ID NO: 19. Another OVX group was treated with SEQ ID NO: 33 (Table 7). All drugs were given as s.c. injections. After 6 weeks of treatment the animals were sacrificed. Spine, tibia and femur were collected for analysis of BMD by DEXA-scan and bone samples were stored for later bone strength measurements.
Lumbar vertebrae (L4-L5-L6-S1), left femur and tibia were collected, cleaned, packed in saline moistened gaze in a tube and stored at −20° C. for later ex vivo bone strength measurements. Right femur and tibia as well as lumbar vertebrae (T13-L1-L2-L3) and caudal vertebrae (S2-S3-C1-C2-C3) were collected, cleaned and stored in 70% ethanol for analysis of bone mineral density (BMD) and possible later histomorphometry and/or μCT scanning.
Ex vivo BMD measurements were performed at the end of the study using a Lunar Piximus II densitometer (GE Healthcare, Chalfont St. Giles, UK) with a precision of 1.5%. Calibration of the instrument was performed with an aluminium/Lucite phantom.
Tibiae, femora and lumbar (L1-L2) and sacral/caudal (S3-C1) spine fragments were placed on the imaging positioning tray and scanned four times. All specimens were placed in a similar orientation for correct comparison. Regions of interest (ROI) were generated on the scans using the Piximus image analysis software provided with the instrument. […]

PTH receptor 1 = molecular target: T1, PTH receptor 1 (Mus musculus, UniProt P41593); assay: MC3T3-E1 cAMP efficacy assay; format: cell-based, murine; details: MC3T3-E1 cells
T1 construct: host or cells: MC3T3-E1 subclone 4
T1 sequence (P41593 27-591): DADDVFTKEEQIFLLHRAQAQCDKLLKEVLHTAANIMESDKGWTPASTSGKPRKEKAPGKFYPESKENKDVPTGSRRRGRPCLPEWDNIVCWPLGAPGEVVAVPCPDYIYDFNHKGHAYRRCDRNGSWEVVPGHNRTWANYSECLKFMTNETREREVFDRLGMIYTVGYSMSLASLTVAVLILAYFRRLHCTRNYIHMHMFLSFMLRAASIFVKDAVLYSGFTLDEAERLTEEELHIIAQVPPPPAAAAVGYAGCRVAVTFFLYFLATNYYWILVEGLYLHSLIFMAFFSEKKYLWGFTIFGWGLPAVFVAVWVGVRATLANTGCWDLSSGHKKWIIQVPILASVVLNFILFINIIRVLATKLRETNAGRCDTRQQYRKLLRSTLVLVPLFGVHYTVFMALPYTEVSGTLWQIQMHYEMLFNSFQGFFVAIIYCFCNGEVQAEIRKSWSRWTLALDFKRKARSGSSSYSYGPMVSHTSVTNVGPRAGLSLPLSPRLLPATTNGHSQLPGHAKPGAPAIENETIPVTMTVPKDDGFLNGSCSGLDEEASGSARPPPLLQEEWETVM
Protocol: MC3T3-E1 cells were seeded at 10,000 cells/well in 96-microtiter plates and grown overnight before the efficacy assays. On the day of analysis the growth medium was carefully removed by suction. Cells were washed once with 200 μl TB/0.1% […]. The buffer was replaced with 100 μl reaction mixture (±test peptide, +100 μM IBMX) and incubated at 37° C. for 13 min. The reaction was stopped by addition of 25 μl of ice-cold 0.5 M HCl. Cells were in the following incubated on ice for 60 min. 75 μl acetate-buffer were added to each well in a 96-well cAMP FlashPlate. […] FlashPlates were incubated overnight at 4° C., emptied by suction and counted in a TopCounter.
Determinations were performed in triplicates at all doses. Standards were included as single determinations, duplicates or triplicates in each experiment, preferentially on each plate.
Efficacy was evaluated in the concentration range from […].
Concentration-dependent cAMP responses were imported into GraphPad Prism vers. 4, transformed and plotted. Curves were fitted with a function for sigmoidal dose response curve non-linear fit Y=Bottom+(Top-Bottom)/(1+10̂((LogEC50-X))) where X is the logarithm of concentration and Y is the response. Y starts at Bottom and goes to Top with a sigmoid shape. pEC50 and the maximally inducible concentration of cAMP were evaluated. Overall statistical differences were analyzed using one-way ANOVA. Post-hoc comparisons were made by the use of Fisher's Least Significance Test. Results were considered significant, when p was lower than 0.05.

| Structure (SMILES) | bone mineral densities at the lowest dose (ovariectomized (OVX) rat; 20 nmol/kg/d) | bone mineral density versus vehicle-treated ovariectomized rats, regardless of site (ovariectomized (OVX) rat; 20 nmol/kg/d to 320 nmol/kg/d s.c., 6 weeks) | BMD proximal tibia (18% bone loss in OVX animals) (ovariectomized (OVX) rat; OVX rats) | BMD in lumbar vertebrae L1-L2 relative to vehicle-treated OVX and sham animals (ovariectomized (OVX) rat; OVX rats) | BMD compared to vehicle-treated OVX animals (ovariectomized (OVX) rat; FIG. 8) | BMD over sham control levels (ovariectomized (OVX) rat; FIG. 8, doses higher than 20 nmol/kg/d) | increase in BMD in the femoral shaft compared to vehicle-treated OVX animals (ovariectomized (OVX) rat) | BMD in the femoral shaft (ovariectomized (OVX) rat) | bone-anabolic activity in cortical and trabecular bone (ovariectomized (OVX) rat; OVX rats) | bone mineral density versus vehicle-treated sham-operated rats (ovariectomized (OVX) rat; doses greater than 20 nmol/kg/d) | agonist strength relative to SEQ ID NO: 30 (PTH receptor 1; cAMP) | Emax ± SEM [pmol/well] (PTH receptor 1; maximally inducible cAMP) | bone mineral density versus vehicle-treated ovariectomized rats, all sites tested (ovariectomized (OVX) rat; 5 nmol/kg/d s.c., 6 weeks) |
| --- | --- | --- | --- | --- | --- | --- | --- | --- | --- | --- | --- | --- | --- |
| CC[C@H](C)[C@H](NC(=O)[C@H](CCC(=O)O)NC(=O)C(C)(C)NC(=O)[C@@H](NC(=O)C1(N)CCCC1)C(C)C)C(=O)N[C@@H](CCC(N)=O)C(=O)N[C@@H](CC(C)C)C(=O)N[C@@H](CC(C)C)C(=O)N[C@@H](Cc1c[nH]cn1)C(=O)N[C@@H](CCC(N)=O)C(=O)N[C@@H](CCCCNC(=N)N)C(=O)N[C@@H](C)C(=O)N[C@H]1CCCCNC(=O)C[C@@H](C(N)=O)NC(=O)[C@H](CC(N)=O)NC(=O)[C@H](CC(C)C)NC(=O)[C@H](Cc2c[nH]c3ccccc23)NC1=O [SEQ ID NO: 19, H-Ac5c-Val-Aib-Glu-Ile-Gln-Leu-Leu-His-Gln-Har-Ala-Lys( )-Trp-Leu-Asn-Asp( )-NH2] (H-[Ac5c]V[Aib]EIQLLHQ[hArg]AKWLND-NH2; lactam 13-17) | at least normalization | significantly higher bone mineral density | completely reversed | improved | significantly increased | significantly increased over sham control levels | about 81 | improved | showed bone-anabolic activity | bone mineral densities higher than in vehicle-treated sham-operated rats | – | – | – |
| CC[C@H](C)[C@H](NC(=O)[C@H](CCC(=O)O)NC(=O)C(C)(C)NC(=O)[C@@H](NC(=O)C1(N)CCCC1)C(C)C)C(=O)N[C@@H](CCC(N)=O)C(=O)N[C@@H](CC(C)C)C(=O)N[C@@H](CCSC)C(=O)N[C@@H](Cc1c[nH]cn1)C(=O)N[C@@H](CCC(N)=O)C(=O)N[C@@H](CCCCNC(=N)N)C(=O)N[C@@H](C)C(=O)N[C@H]1CCCCNC(=O)C[C@@H](C(N)=O)NC(=O)[C@H](CC(C)C)NC(=O)[C@H](Cc2c[nH]c3ccccc23)NC(=O)[C@@H](NC(=O)[C@H](C)NC(=O)[C@H](CCCCNC(=N)N)NC(=O)[C@H](CCC(N)=O)NC(=O)[C@H](Cc2c[nH]cn2)NC(=O)[C@H](CCSC)NC(=O)[C@H](CC(C)C)NC(=O)[C@H](CCC(N)=O)NC(=O)[C@@H](NC(=O)[C@H](CCC(=O)O)NC(=O)C(C)(C)NC(=O)[C@@H](NC(=O)C2(N)CCCC2)C(C)C)[C@@H](C)CC)CCCCNC(=O)C[C@@H](C(N)=O)NC(=O)[C@H](CC(C)C)NC(=O)[C@H](Cc2c[nH]c3ccccc23)NC1=O [SEQ ID NO: 33, (H-Ac5c-Val-Aib-Glu-Ile-Gln-Leu-Met-His-Gln-Har-Ala-Lys( )-Trp-Leu-Asp( )-NH2)2] (I: H-[Ac5c]V[Aib]EIQLMHQ[hArg]AKWLD-NH2 / II: H-[Ac5c]V[Aib]EIQLMHQ[hArg]AKWLD-NH2; amide I:13-II:16, I:16-II:13 (inferred)) | – | – | completely reversed | improved | significantly increased | – | about 81 | improved | – | – | eight-fold stronger agonist | 5.0 ± 0.3 pmol/well | significant increases; also recorded: significantly increased |
